{
  "source": "patent US11739074B2",
  "about": "“Ras inhibitors” (Revolution Medicines, Inc., priority 2019, dated 2023)",
  "key": {"[1]": {"conditions": "ester bond, EDCI/HOBt/DIPEA, 25.0 °C, 16.0 h"}, "[2]": {"conditions": "ester bond, 18-membered ring, EDCI/HOBt/DIEA, 25.0 °C"}, "SW1573": {"test_system": "SW1573", "conditions": "cited from earlier work"}, "[3]": {"conditions": "from CCn1c(-c2cccnc2[C@H](C)OC)c(CC(C)(C)CO)c2cc(-c3cc(C[C@H](NC(=O)OC(C)(C)C)C(=O)N4CCC[C@@H](C(=O)O)N4)cc(O[Si](C(C)C)(C(C)C)C(C)C)c3)ccc21, DCM, 15.3 mM"}},
  "note": "Where two headings read alike, the source gives them in different places.",
  "data": [
    {"smiles": "CC(C)[Si](Oc1cc2cc(c1)-c1ccc3[nH]c(I)c(c3c1)CC(C)(C)COC(=O)[C@@H]1CCCN(N1)C(=O)[C@@H](NC(=O)OC(C)(C)C)C2)(C(C)C)C(C)C", "values": [
      {"measurement": "ring closure, yield of all isomers", "setting": "[1]; from CC(C)[Si](Oc1cc(C[C@H](NC(=O)OC(C)(C)C)C(=O)N2CCC[C@@H](C(=O)O)N2)cc(-c2ccc3[nH]c(I)c(CC(C)(C)CO)c3c2)c1)(C(C)C)C(C)C, DCM, 22.8 mM", "result": 50, "unit": "%"}
    ]},
    {"smiles": "CCn1c(-c2cccnc2[C@H](C)OC)c2c3cc(ccc31)-c1cc(cc(O[Si](C(C)C)(C(C)C)C(C)C)c1)C[C@H](NC(=O)OC(C)(C)C)C(=O)N1CCC[C@H](N1)C(=O)OCC(C)(C)C2", "values": [
      {"measurement": "ring closure, isolated yield", "setting": "[2]; [3]", "result": 42, "unit": "%"},
      {"measurement": "ring closure, yield of all isomers", "setting": "[1]; [3]", "result": 42, "unit": "%"}
    ]},
    {"smiles": "C=CC(=O)N1CCN(c2nc(=O)n(-c3c(C)ccnc3C(C)C)c3nc(-c4c(O)cccc4F)c(F)cc23)[C@@H](C)C1", "note": "[AMG510]", "values": [
      {"measurement": "sensitivity of cell line SW1573 to inhibitor", "setting": "SW1573", "result": "insensitive"}
    ]},
    {"smiles": "CCn1c(-c2cccnc2[C@H](C)OC)c2c3cc(ccc31)-c1cc(cc(C(F)F)c1)C[C@H](NC(=O)OC(C)(C)C)C(=O)N1CCC[C@H](N1)C(=O)OCC(C)(C)C2", "values": [
      {"measurement": "ring closure, isolated yield", "setting": "[2]; from CCn1c(-c2cccnc2[C@H](C)OC)c(CC(C)(C)CO)c2cc(-c3cc(C[C@H](NC(=O)OC(C)(C)C)C(=O)N4CCC[C@@H](C(=O)O)N4)cc(C(F)F)c3)ccc21, DCM, 21.0 mM", "result": 71.6, "unit": "%"},
      {"measurement": "ring closure, yield of all isomers", "setting": "[1]; from CCn1c(-c2cccnc2[C@H](C)OC)c(CC(C)(C)CO)c2cc(-c3cc(C[C@H](NC(=O)OC(C)(C)C)C(=O)N4CCC[C@@H](C(=O)O)N4)cc(C(F)F)c3)ccc21, DCM, 21.05 mM", "result": 71.6, "unit": "%"}
    ]},
    {"smiles": "CCn1c(-c2cccnc2[C@H](C)OC)c2c3cc(ccc31)-c1cc(CF)cc(c1)C[C@H](NC(=O)OC(C)(C)C)C(=O)N1CCC[C@H](N1)C(=O)OCC(C)(C)C2", "values": [
      {"measurement": "ring closure, isolated yield", "setting": "[2]; from CCn1c(-c2cccnc2[C@H](C)OC)c(CC(C)(C)CO)c2cc(-c3cc(CF)cc(C[C@H](NC(=O)OC(C)(C)C)C(=O)N4CCC[C@@H](C(=O)O)N4)c3)ccc21, DCM, 23.7 mM", "result": 65, "unit": "%"},
      {"measurement": "ring closure, yield of all isomers", "setting": "[1]; from CCn1c(-c2cccnc2[C@H](C)OC)c(CC(C)(C)CO)c2cc(-c3cc(CF)cc(C[C@H](NC(=O)OC(C)(C)C)C(=O)N4CCC[C@@H](C(=O)O)N4)c3)ccc21, DCM, 23.73 mM", "result": 65, "unit": "%"}
    ]},
    {"smiles": "CCn1c(-c2cc(N3CCN(C(=O)OCc4ccccc4)CC3)cnc2[C@H](C)OC)c2c3cc(ccc31)-c1csc(n1)C[C@H](NC(=O)OC(C)(C)C)C(=O)N1CCC[C@H](N1)C(=O)OCC(C)(C)C2", "values": [
      {"measurement": "ring closure, isolated yield", "setting": "[2]; from CCn1c(-c2cc(N3CCN(C(=O)OCc4ccccc4)CC3)cnc2[C@H](C)OC)c(CC(C)(C)CO)c2cc(-c3csc(C[C@H](NC(=O)OC(C)(C)C)C(=O)N4CCC[C@@H](C(=O)O)N4)n3)ccc21, MeCN, 10.3 mM", "result": 54.9, "unit": "%"},
      {"measurement": "ring closure, yield of all isomers", "setting": "[1]; from CCn1c(-c2cc(N3CCN(C(=O)OCc4ccccc4)CC3)cnc2[C@H](C)OC)c(CC(C)(C)CO)c2cc(-c3csc(C[C@H](NC(=O)OC(C)(C)C)C(=O)N4CCC[C@@H](C(=O)O)N4)n3)ccc21, MeCN, 10.34 mM", "result": 54.9, "unit": "%"}
    ]}
  ]
}
